Experimental data taken from patent US12263171B2, “7-, 8-, and 10-substituted amino triazolo quinazoline derivatives as adenosine receptor antagonists, pharmaceutical compositions and their use” (Merck Sharp & Dohme LLC, priority 2018, dated 2025).

Key:
[1] = target: human A2a adenosine receptor (Homo sapiens (Human), UniProt P29274); assay: A2a receptor affinity radioligand binding assay ([3H] SCH58261, membranes from HEK293 or CHO cells); details: unstarred values: radioligand binding
Outline: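 Displacement of tritiated SCH58261 (working dilution 4 nM) from recombinant human A2a receptor membranes (HEK293 or CHO), 60 min at room temperature in Tris pH 7.4/MgCl2 buffer after 15–30 min compound preincubation. Scintillation counting after filtration; normalized percent effect fitted 4-parameter logistic for IC50.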

[2] = target: human A2b adenosine receptor (Homo sapiens (Human), UniProt P29275); assay: A2B antagonism in cAMP cell-based assay (LANCE cAMP, HEK293 cells, 600 nM adenosine); details: for IC50: values marked *: cAMP cell-based assay
Procedure: Measurement of A2A and A2B Antagonism in cAMP Cell-Based Assay
All subsequent liquid additions were performed using a multichannel pipettor. […] After this time 5 μL of either 300 nM or 600 nM adenosine (Sigma Cat. No. A9251) for A2A and A2B respectively was added and incubated for 30 minutes at 37° C. and 5% CO2 in a humidified environment. At this time detection mix was prepared by combining the LANCE Eu-W8044 labeled streptavidin and. Biotin-cAMP in detection buffer according to the manufacturers protocol. […] Curve fitting of the percent effect data versus the log of compound concentration used a 4-parameter concentration response curve fitting algorithm to calculate IC50 values.

Sequence of human A2b adenosine receptor (P29275 whole entry): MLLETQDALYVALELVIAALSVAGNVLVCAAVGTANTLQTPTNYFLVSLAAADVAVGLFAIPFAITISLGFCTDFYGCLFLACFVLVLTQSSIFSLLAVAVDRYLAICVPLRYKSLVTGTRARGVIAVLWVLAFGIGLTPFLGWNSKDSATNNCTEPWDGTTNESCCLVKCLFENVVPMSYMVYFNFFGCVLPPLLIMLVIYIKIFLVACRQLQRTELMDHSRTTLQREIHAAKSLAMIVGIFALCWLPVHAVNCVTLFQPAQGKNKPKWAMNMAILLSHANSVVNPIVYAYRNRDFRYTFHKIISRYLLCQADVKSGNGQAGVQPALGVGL
Sequence of human A2a adenosine receptor (P29274 whole entry): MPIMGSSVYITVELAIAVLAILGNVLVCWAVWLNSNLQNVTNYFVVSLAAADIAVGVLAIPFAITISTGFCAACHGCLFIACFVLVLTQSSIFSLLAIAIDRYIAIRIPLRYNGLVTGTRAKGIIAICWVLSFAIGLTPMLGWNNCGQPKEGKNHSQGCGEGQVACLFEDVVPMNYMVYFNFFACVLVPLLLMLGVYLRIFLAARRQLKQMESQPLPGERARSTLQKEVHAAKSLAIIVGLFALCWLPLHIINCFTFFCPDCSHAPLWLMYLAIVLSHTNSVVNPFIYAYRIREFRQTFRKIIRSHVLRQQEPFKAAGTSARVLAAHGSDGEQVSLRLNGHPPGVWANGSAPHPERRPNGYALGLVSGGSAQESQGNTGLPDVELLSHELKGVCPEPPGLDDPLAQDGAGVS

Q: `COc1ccc2c(c1)nc(N)n1nc([C@@H]3CCCN(c4cnn(C(C)(C)[C@@H](C)O)c4)C3)nc21` [Example 225B] was tested. Which IC50 [1] did it give?
A: Its IC50 is 3.2 nM.

Q: What about the IC50 [2] of the same compound?
A: Its IC50 is 78.4 nM.

Q: `Nc1nc2c(Cl)cccc2c2nc(C3CCCN(c4cnn(C5CC5)c4)C3)nn12` (racemic) [Example 133, rac-7-chloro-2-(1-(1-cyclopropyl-1H-pyrazol-4-yl)piperidin-3-yl)-[1,2,4]triazolo[1,5-c]pyquinazolin-5-amine] was tested. Which IC50 [1] did it give?
A: The IC50 was 1.2 nM.

Q: What about the IC50 [2] of the same compound?
A: Its IC50 is 116 nM.

Q: With `COc1ccc2c(c1)nc(N)n1nc([C@@H]3CCCN(c4cnn([C@H](C)[C@H](C)O)c4)C3)nc21` [Example 221B, (2S,3R)-3-(4-((R)-3-(5-amino-8-methoxy-[1,2,4]triazolo[1,5-c]quinazolin-2-yl)piperidin-1-yl)-1H-pyrazol-1-yl)butan-2-ol] as the compound, how does the IC50 [1] read?
A: The IC50 was 1.5 nM.

Q: What about the IC50 [2] of the same compound?
A: Its IC50 is 86 nM.

Q: For `COc1cccc2c1nc(N)n1nc([C@@H]3CCCN(c4cnn5c(C)cccc45)C3)nc21` [Example 19, (R)-7-methoxy-2-(1-(7-methylpyrazolo[1,5-a]pyridin-3-yl)piperidin-3-yl)-[1,2,4]triazolo[1,5-c]quinazolin-5-amine], which IC50 [1] is on record?
A: Its IC50 is 1.3 nM.

Q: What about the IC50 [2] of the same compound?
A: The IC50 was 70.9 nM.

Q: With `COc1cccc2c1nc(N)n1nc([C@@H]3CCCN(c4cnn(C(C)(C)C(=O)O)c4)C3)nc21` [Example 28, (R)-2-(4-(3-(5-amino-7-methoxy-[1,2,4]triazolo[1,5-c]quinazolin-2-yl)piperidin-1-yl)-1H-pyrazol-1-yl)-2-methylpropanoic acid] as the compound, how does the IC50 [1] read?
A: Its IC50 is 6.3 nM.

Q: And the IC50 [2]?
A: The IC50 was 48.3 nM.

Q: `CCn1cc(N2CCC[C@@H](c3nc4c5cccc(OC)c5nc(N)n4n3)C2)cn1` [Example 4, (R)-2-(1-(1-ethyl-1H-pyrazol-4-yl)piperidin-3-yl)-7-methoxy-[1,2,4]triazolo[1,5-c]quinazolin-5-amine] was tested. Which IC50 [1] did it give?
A: The IC50 was 1.4 nM.

Q: And the IC50 [2]?
A: Its IC50 is 49.5 nM.

Q: `COc1cccc2c1nc(N)n1nc([C@@H]3CCN(c4cnn(CC(F)(F)F)c4)C3)nc21` [Example 164, (R)-7-methoxy-2-(1-(1-(2,2,2-trifluoroethyl)-1H-pyrazol-4-yl)pyrrolidin-3-yl)-[1,2,4]triazolo[1,5-c]quinazolin-5-amine] was tested. Which IC50 [1] did it give?
A: The IC50 was 8.9 nM.

Q: And the IC50 [2]?
A: The IC50 was 29.5 nM.

Q: Which IC50 [1] does the source give for `COc1cccc2c1nc(N)n1nc([C@H]3CC[C@H](C)N(c4cnn(CC5(O)CCC5)c4)C3)nc21` [Example 144B] here?
A: Its IC50 is 3.1 nM.

Q: And the IC50 [2]?
A: The IC50 was 333 nM.

Q: `COc1ccc2c(c1)nc(N)n1nc([C@@H]3C[C@H](C)CN(c4cn([C@H](C)[C@@H](C)O)nc4C)C3)nc21` [Example 219B, (2R,3R)-3-(4-((3R,5S)-3-(5-amino-8-methoxy-[1,2,4]triazolo[1,5-c]quinazolin-2-yl)-5-methylpiperidin-1-yl)-3-methyl-1H-pyrazol-1-yl)butan-2-ol] was tested. Which IC50 [1] did it give?
A: Its IC50 is 0.2 nM.

Q: What about the IC50 [2] of the same compound?
A: Its IC50 is 999 nM.

Q: What does the source list for `COc1cccc2c1nc(N)n1nc([C@@H]3CC[C@H](C)N(c4cnn(C(C)C(C)(C)O)c4)C3)nc21` (stereo partly drawn) [Example 147D, 3-(4-((2S,5R)-5-(5-amino-7-methoxy-[1,2,4]triazolo[1,5-c]quinazolin-2-yl)-2-methylpiperidin-1-yl)-1H-pyrazol-1-yl)-2-methylbutan-2-ol]?
A: IC50 [1]: 0.2 nM; IC50 [2]: 5.6 nM

Q: What does the source list for `COc1cccc2c1nc(N)n1nc(C3CCC(C)N(c4cnn(C5CC5)c4)C3)nc21` (single isomer, unassigned) [Example 141A]?
A: IC50 [1]: 2.2 nM; IC50 [2]: 712 nM

Q: What does the source list for `COc1ccc2c(c1)nc(N)n1nc([C@@H]3CCCN(c4cnn(C5CC5)c4)C3)nc21` [Example 184, (R)-2-(1-(1-cyclopropyl-1H-pyrazol-4-yl)piperidin-3-yl)-8-methoxy-[1,2,4]triazolo[1,5-c]quinazolin-5-amine]?
A: IC50 [1]: 4 nM; IC50 [2]: 141 nM

Q: For `COc1ccc(F)c2c1nc(N)n1nc([C@@H]3CC[C@H](C)N(c4cnn(CC(C)(C)O)c4)C3)nc21` [Example 224, 1-(4-((2S,5R)-5-(5-amino-10-fluoro-7-methoxy-[1,2,4]triazolo[1,5-c]quinazolin-2-yl)-2-methylpiperidin-1-yl)-1H-pyrazol-1-yl)-2-methylpropan-2-ol], which IC50 [1] is on record?
A: The IC50 was 0.3 nM.

Q: And the IC50 [2]?
A: The IC50 was 9.6 nM.

Q: With `COc1cccc2c1nc(N)n1nc(C3CN(c4cnn(CC(F)(F)F)c4)CC(F)(F)C3)nc21` (single isomer, unassigned) [Example 155A] as the compound, how does the IC50 [1] read?
A: The IC50 was 12.1 nM.

Q: And the IC50 [2]?
A: The IC50 was 1330 nM.

Q: With `CC[C@H]1CC[C@H](c2nc3c4ccc(OC)cc4nc(N)n3n2)CN1c1cnn(C(C)(C)CO)c1` [Example 215C] as the compound, how does the IC50 [1] read?
A: The IC50 was 8.7 nM.

Q: What about the IC50 [2] of the same compound?
A: The IC50 was 1330 nM.

Q: Which IC50 [1] does the source give for `COc1cccc2c1nc(N)n1nc([C@@H]3CCCN(c4cnn(CC(C)(C)N)c4)C3)nc21` [Example 120, (R)-2-(1-(1-(2-amino-2-methylpropyl)-1H-pyrazol-4-yl)piperidin-3-yl)-7-methoxy-[1,2,4]triazolo[1,5-c]quinazolin-5-amine] here?
A: The IC50 was 3.1 nM.

Q: What about the IC50 [2] of the same compound?
A: The IC50 was 321 nM.

Q: With `COc1cccc2c1nc(N)n1nc([C@@H]3CCCN(c4cc(C(F)(F)F)nn4C)C3)nc21` [Example 77, (R)-7-methoxy-2-(1-(1-methyl-3-(trifluoromethyl)-1H-pyrazol-5-yl)piperidin-3-yl)-[1,2,4]triazolo[1,5-c]quinazolin-5-amine] as the compound, how does the IC50 [1] read?
A: The IC50 was 0.8 nM.

Q: And the IC50 [2]?
A: The IC50 was 540 nM.

Q: With `COc1cccc2c1nc(N)n1nc([C@@H]3CCCN(c4nccc(C(F)(F)F)n4)C3)nc21` [Example 111, (R)-7-methoxy-2-(1-(4-(trifluoromethyl)pyrimidin-2-yl)piperidin-3-yl)-[1,2,4]triazolo[1,5-c]quinazolin-5-amine] as the compound, how does the IC50 [1] read?
A: Its IC50 is 16.4 nM.

Q: What about the “*A2B cAMP % inh. @ 10000 nM” value ([2]; @ 10000 nM, marked *) of the same compound?
A: The value was 10% inh. @ 10000 nM*.

Q: How did the IC50 [1] turn out when `Cn1cc(N2CCCC(c3nc4c5cccc(Cl)c5nc(N)n4n3)C2)cn1` (single isomer, unassigned) [Example 132A] was run?
A: The IC50 was 18.6 nM.

Q: What about the “*A2B cAMP ^ % @ 10000 nM” value ([2]; @ 10000 nM, marked *, printed with ^ and without inh.) of the same compound?
A: The value was 31% @ 10000 nM*.

Q: `COc1cccc2c1nc(N)n1nc(C3CCC(C)N(c4cnn(CC(F)(F)F)c4)C3)nc21` (single isomer, unassigned) [Example 142D] was tested. Which IC50 [1] did it give?
A: Its IC50 is 0.9 nM.

Q: What about the IC50 [2] of the same compound?
A: Its IC50 is 9.3 nM.

Q: Which IC50 [1] does the source give for `CCn1cc(N2C[C@H](c3nc4c5cccc(OC)c5nc(N)n4n3)CC[C@@H]2C)cn1` [Example 140D] here?
A: The IC50 was 5 nM.

Q: What about the IC50 [2] of the same compound?
A: Its IC50 is 3010 nM.

Q: Which IC50 [1] does the source give for `COc1cccc2c1nc(N)n1nc([C@@H]3CCCN(c4cncc(F)c4)C3)nc21` [Example 113, (R)-2-(1-(5-fluoropyridin-3-yl)piperidin-3-yl)-7-methoxy-[1,2,4]triazolo[1,5-c]quinazolin-5-amine] here?
A: Its IC50 is 0.6 nM.

Q: And the IC50 [2]?
A: The IC50 was 209 nM.

Q: What does the source list for `COc1cccc2c1nc(N)n1nc([C@@H]3CCCN(c4cnn([C@@H]5CCC[C@H](O)[C@@]5(C)O)c4)C3)nc21` [Example 27, (1S,2S,6R)-6-(4-((R)-3-(5-amino-7-methoxy-[1,2,4]triazolo[1,5-c]quinazolin-2-yl)piperidin-1-yl)-1H-pyrazol-1-yl)-1-methylcyclohexane-1,2-diol]?
A: IC50 [1]: 2 nM; IC50 [2]: 40.3 nM

Q: How did the IC50 [1] turn out when `COc1cccc2c1nc(N)n1nc([C@@H]3CCCN(c4cc(C(F)(F)F)n(C)n4)C3)nc21` [Example 78, (R)-7-methoxy-2-(1-(1-methyl-5-(trifluoromethyl)-1H-pyrazol-3-yl)piperidin-3-yl)-[1,2,4]triazolo[1,5-c]quinazolin-5-amine] was run?
A: Its IC50 is 3.3 nM.

Q: And the IC50 [2]?
A: Its IC50 is 2500 nM.

Q: With `COc1cccc2c1nc(N)n1nc(C3CCC(C)N(c4cnn(CC5(O)CCC5)c4)C3)nc21` (single isomer, unassigned) [Example 144D] as the compound, how does the IC50 [1] read?
A: The IC50 was 1.2 nM.

Q: What about the IC50 [2] of the same compound?
A: Its IC50 is 4 nM.

Q: How did the IC50 [1] turn out when `COc1cccc2c1nc(N)n1nc([C@@H]3C[C@@H](F)CN(c4cnn(C5CC5)c4)C3)nc21` [Example 148B] was run?
A: The IC50 was 27.8 nM.

Q: And the “*A2B cAMP % inh. @ 10000 nM” value ([2]; @ 10000 nM, marked *)?
A: Its value is 36% inh. @ 10000 nM*.

Q: How did the IC50 [1] turn out when `COc1cccc2c1nc(N)n1nc([C@@H]3CCCN(c4nnn(C)c4C)C3)nc21` [Example 79, (R)-2-(1-(1,5-dimethyl-1H-1,2,3-triazol-4-yl)piperidin-3-yl)-7-methoxy-[1,2,4]triazolo[1,5-c]quinazolin-5-amine] was run?
A: The IC50 was 1.6 nM.

Q: And the IC50 [2]?
A: The IC50 was 146 nM.

Q: Which results are given for `COc1cccc2c1nc(N)n1nc([C@@H]3CCCN(c4cnn(C(C)C)c4)C3)nc21` [Example 5, (R)-2-(1-(1-isopropyl-1H-pyrazol-4-yl)piperidin-3-yl)-7-methoxy-[1,2,4]triazolo[1,5-c]quinazolin-5-amine]?
A: IC50 [1]: 2.4 nM; IC50 [2]: 39.5 nM

Q: Which results are given for `COc1cccc2c1nc(N)n1nc([C@@H]3CCCN(c4cnn(CC5(O)CCC5)c4C)C3)nc21` [Example 34, (R)-1-((4-(3-(5-amino-7-methoxy-[1,2,4]triazolo[1,5-c]quinazolin-2-yl)piperidin-1-yl)-5-methyl-1H-pyrazol-1-yl)methyl)cyclobutan-1-ol]?
A: IC50 [1]: 1.6 nM; IC50 [2]: 219 nM

Q: `COc1ccc2c(c1)nc(N)n1nc([C@@H]3C[C@H](C)CN(c4cnn(C(C)(C)CO)c4)C3)nc21` (single isomer, unassigned) [Example 222A] was tested. Which IC50 [1] did it give?
A: The IC50 was 1.32 nM.

Q: What about the IC50 [2] of the same compound?
A: Its IC50 is 815 nM.

Q: Which results are given for `COc1cccc2c1nc(N)n1nc([C@@H]3CCCN(c4cnn(C5CC6(COC6)C5)c4)C3)nc21` [Example 31, (R)-2-(1-(1-(2-oxaspiro[3.3]heptan-6-yl)-1H-pyrazol-4-yl)piperidin-3-yl)-7-methoxy-[1,2,4]triazolo[1,5-c]quinazolin-5-amine]?
A: IC50 [1]: 50.8 nM; IC50 [2]: 1700 nM

Q: With `COc1ccc2c(c1)nc(N)n1nc([C@@H]3CC[C@H](C)N(c4cnn(C(C)(C)CO)c4)C3)nc21` [Example 214, 2-(4-((2S,5R)-5-(5-amino-8-methoxy-[1,2,4]triazolo[1,5-c]quinazolin-2-yl)-2-methylpiperidin-1-yl)-1H-pyrazol-1-yl)-2-methylpropan-1-ol] as the compound, how does the IC50 [1] read?
A: The IC50 was 0.2 nM.

Q: What about the IC50 [2] of the same compound?
A: Its IC50 is 2.8 nM.
